What was measured:
Type in all cases: in vivo
Design in all cases: scale not given here
[1] = system: Echinochloa oryzicola Vasing; assay: Test Example 1: herbicidal effects in paddy field soil treatment; settings: 1000 g active ingredient per hectare, 21st day after treatment
Method: (§1) 100-cm^2 plastic pots were filled with paddy field soil. After puddling and leveling, seeds of Echinochloa oryzicola Vasing, Monochoria vaginalis (Burm. f.) Presl var. plantaginea (Roxb.) Solms-Laub., and Scirpus juncoides Roxb. var. ohwianus. T. Koyama were sowed in the pots, and the soil was waterlogged to a water depth of 3 cm. On the next day, a wettable powder formulation prepared according to Formulation Example 1 was diluted with water, and the dilution was added dropwise onto the water surface. The amount of application was an amount equivalent to 1000 g of the active ingredient per hectare. Thereafter, the plants were grown in a greenhouse, and on the 21st day after the treatment, the herbicidal effects were investigated according to the criteria described in Table 71.
(§2) In addition, comparative compound A, comparative compound B, comparative compound C, and comparative compound D in the tables represent Compound Nos. 70, 34, 32, and 31, respectively, as described in EP-283261. The structural formulas of these compounds are presented below.

[2] = system: Monochoria vaginalis (Burm. f.) Presl var. plantaginea (Roxb.) Solms-Laub.; assay: as above; settings: 1000 g active ingredient per hectare, 21st day after treatment
Method: as §1, §2

[3] = system: Scirpus juncoides Roxb. var. ohwianus. T. Koyama; assay: as above; settings: 1000 g active ingredient per hectare, 21st day after treatment
Method: as §1, §2

[4] = system: Abutilon theophrasti medicus; assay: Test Example 3: herbicidal effects in farmland foliar treatment; settings: 1000 g active ingredient per hectare, 14th day after treatment
Method: (§3) 80-cm^2 plastic pots were filled with farmland soil. Seeds of Echinochloa crus-galli (L.) P. Beauv. var. crus-galli, Abutilon theophrasti medicus, and Amaranthus retroflexus were sowed in the pots, and the plants were grown for two weeks in a greenhouse. A wettable powder formulation prepared according to Formulation Example 1 was diluted with water, and the dilution was applied by foliar treatment by spraying with a small sprayer over the whole plant from the upper part, in an amount equivalent to 1000 liters per hectare, such that 1000 g of the active ingredient was applied per hectare. Thereafter, the plants were grown in a greenhouse, and on the 14th day after the treatment, the herbicidal effects were investigated according to the criteria described in Table 71 shown above.

Amaranthus retroflexus [5] = assay: as above; settings: 1000 g active ingredient per hectare, 14th day after treatment
Method: as §3

[6] = system: Echinochloa crus-galli (L.) P. Beauv. var. crus-galli; assay: as above; settings: 1000 g active ingredient per hectare, 14th day after treatment
Method: as §3

Setaria viridis [7] = assay: Test Example 2: herbicidal effects in farmland soil treatment; settings: 1000 g active ingredient per hectare, 21st day after treatment
Echinochloa crus-galli = assay: as above; settings: 1000 g active ingredient per hectare, 21st day after treatment
[8] = system: Abutilon theophrasti medicus; assay: as above; settings: 1000 g active ingredient per hectare, 21st day after treatment
Method: as §3, with “of” for “of Echinochloa crus-galli (L.) P. Beauv. var. crus-galli,”, “medicus” for “medicus,”, “soil was covered.” for “the plants were grown for two weeks in a greenhouse.”, “uniformly sprayed on the soil surface” for “applied by foliar treatment by spraying”, “sprayer,” for “sprayer over the whole plant from the upper part,”, “21st” for “14th”

Amaranthus retroflexus [9] = assay: as above; settings: 1000 g active ingredient per hectare, 21st day after treatment
Method: as §3, with “of” for “of Echinochloa crus-galli (L.) P. Beauv. var. crus-galli,”, “medicus” for “medicus,”, “soil was covered.” for “the plants were grown for two weeks in a greenhouse.”, “uniformly sprayed on the soil surface” for “applied by foliar treatment by spraying”, “sprayer,” for “sprayer over the whole plant from the upper part,”, “21st” for “14th”

Setaria viridis [10] = assay: Test Example 3: herbicidal effects in farmland foliar treatment; settings: 1000 g active ingredient per hectare, 14th day after treatment

Structure (SMILES) | Herbicidal effect index, Echinochloa oryzicola [1] | Herbicidal effect index, Monochoria vaginalis [2] | Herbicidal effect index, Scirpus juncoides [3] | Herbicidal effect index, Abutilon theoprasti [4] | Herbicidal effect index, Amaranthus retroflexus (Amaranthus retroflexus [5]) | Herbicidal effect index, Echinochloa crus-galli [6] | Herbicidal effect index, Setaria viridis (Setaria viridis [7]) | Herbicidal effect index, Echinochloa crus-galli (Echinochloa crus-galli) | Herbicidal effect index, Abutilon thophrasti [8] | Herbicidal effect index, Amaranthus retroflexus (Amaranthus retroflexus [9]) | Herbicidal effect index, Setaria viridis (Setaria viridis [10])
O=C1CCCC(O)=C1C(=O)c1cnccn1 [Comparative compound A, reference compound] | 2 | 0 | 0 | 2 | 1 | 0 | 1 | 5 | 1 | 0 | 0
O=C1CCCC(O)=C1C(=O)c1ccc2ccccc2n1 [Comparative compound B, reference compound] | 0 | 0 | 0 | 5 | 1 | 0 | 0 | 3 | 2 | 2 | 0
CC1(C)CC(=O)C(C(=O)c2cnc3ccccc3n2)=C(O)C1 [Comparative compound C, reference compound] | 1 | 2 | 1 | 4 | 0 | 0 | 0 | 2 | 0 | 3 | 0
CC1(C)CCC(=O)C(C(=O)c2cnc3ccccc3n2)=C1O [Comparative compound D, reference compound] | 1 | 4 | 2 | 4 | 1 | 0 | 0 | 2 | 0 | 3 | 0
COc1ccc(-n2c(=O)c(C(=O)C3=C(O)CCCC3=O)cc3ccccc32)cc1 [I-56] | 5 | 5 | 5 | 5 | 5 | 3 | – | – | – | – | 3
CCn1c(=O)c(C(=O)C2=C(O)CCCC2=O)cc2c(Cl)cccc21 [I-157] | 5 | 4 | 3 | – | – | – | – | – | – | – | –
CCn1c(=O)c(C(=O)C2=C(O)CCCC2=O)cc2cccnc21 [II-3] | 5 | 5 | 5 | 5 | 5 | 5 | – | – | – | – | 4
O=C1CCCC(O)=C1C(=O)c1cc2cccnc2n(Cc2ccccc2Cl)c1=O [II-28] | 5 | 5 | 5 | 5 | 5 | 4 | – | – | – | – | 3
O=C1CCCC(O)=C1C(=O)c1cc2cccnc2n(Cc2cccc(Cl)c2)c1=O [II-29] | 5 | 5 | 5 | – | – | – | – | – | – | – | –
O=C1CCCC(O)=C1C(=O)c1cc2cccnc2n(Cc2ccc(Cl)cc2)c1=O [II-30] | 4 | 5 | 5 | – | – | – | – | – | – | – | –
COc1cccc(Cn2c(=O)c(C(=O)C3=C(O)CCCC3=O)cc3cccnc32)c1 [II-38] | 5 | 5 | 5 | – | – | – | – | – | – | – | –
COc1ccc(Cn2c(=O)c(C(=O)C3=C(O)CCCC3=O)cc3cccnc32)cc1 [II-39] | 5 | 5 | 5 | 5 | 5 | 5 | – | – | – | – | 3
Cc1ccc2cc(C(=O)C3=C(O)CCCC3=O)c(=O)n(C)c2n1 [II-121] | 5 | 5 | 5 | 5 | 5 | 4 | – | – | – | – | 3
CC(C)c1ccc2cc(C(=O)C3=C(O)CCCC3=O)c(=O)n(C)c2n1 [II-126] | 3 | 5 | 4 | – | – | – | – | – | – | – | –
O=C1CCCC(O)=C1C(=O)c1cc2ccc(C(F)(F)F)nc2n(-c2ccccc2)c1=O [II-138] | 5 | 5 | 5 | 5 | 3 | 5 | – | – | – | – | 5
CCc1ccc2cc(C(=O)C3=C(O)CCCC3=O)c(=O)n(C)c2n1 [II-434] | 5 | 5 | 5 | – | – | – | – | – | – | – | –
O=C1CCCC(O)=C1C(=O)c1cc2ccc(C(F)F)nc2n(-c2ccc3c(c2)OCCO3)c1=O [II-442] | 5 | 5 | 5 | – | – | – | – | – | – | – | –
O=C1CCCC(O)=C1C(=O)c1cc2ncccc2n(-c2ccccc2)c1=O [III-41] | 4 | 4 | 4 | – | – | – | – | – | – | – | –
